This note sets out measurements from patent US20110160146A1, “Conjungation of Small Molecules to Octaarginine Transporters for Overcoming Multi-Drug Resistance” (National Institute of Health (NIH), priority 2008, published 2011).

SMILES strings stand for the structures.

One assay deals with MCF-7. Nature of the assay: cells. Particulars: Homo sapiens, MCF7, read-out: IC50 concentration. As to the method:
(§1) After 72 hours, the cytotoxicity of the relevant compound was determined by an MTT based assay.
(§2) Cell Lines; SKOV-3 cells were obtained from ATCC; UCI-101 and UCI-107 cell lines were obtained from Drs. P. DiSaia and A. Manetta, University of California; MCF-7 and MCF-7-Pgp were obtained from Dr. D. Piwnica-Worms, Washington University; OVCA429, OVCA433 and the taxane resistant derivatives of these cells (OVCA429T, OVCA429TxT, OVCA433T and OVCA433TxT) were obtained from Dr. B. Sikic, Stanford University. All cells were grown in DMEM with 10% FBS.
(§3) Cell Cytotoxicity Assay. The cytotoxicity of relevant compounds was determined by IC50 assay. Cells were seeded overnight into 96-well plates, and then incubated with a serial dilution of the indicated compound for 20 min, before washing twice with fresh media, and incubation at 37° C. for 72 hr in drug-free media. The IC50 values were determined as the concentration of compound required to inhibit the viability of the cell layer by 50% relative to untreated, and cell-free control wells (100 and 0% viability respectively) determined from semi-logarithmic dose response curves. […] Bioluminescence was determined using an IVIS 50 system (Caliper Life Sciences, Alameda, Calif.). Each compound and dilution was tested in triplicate per experiment, with each experiment reproduced three times.

A further assay relates to OVCA 429. The assay is described as follows: cells. The conditions noted are these: Homo sapiens, OVCA429, read-out: IC50 concentration. As to the method:
as §1, §2, §3

The next assay deals with OVCA 433. The assay is described as follows: cells. The conditions noted are these: Homo sapiens, OVCA433, read-out: IC50 concentration. As to the method:
as §1, §2, §3

Another assay concerns SKOV-3. Nature of the assay: cells. Particulars: Homo sapiens, SK-OV-3, read-out: IC50 concentration. As to the method:
as §1, §2, §3

A further assay relates to UCI-101 luc. The assay is described as follows: cells. The conditions noted are these: Homo sapiens, UCI101, read-out: IC50 concentration. As to the method:
as §1, §2, §3

The test system of another assay is UCI-107 luc. Nature of the assay: cells. The conditions noted are these: Homo sapiens, read-out: IC50 concentration. The method, then: as §1, §2, §3
Another assay concerns OVCA 429TxT. The assay is described as follows: cells. The conditions noted are these: Homo sapiens, read-out: IC50 concentration. The method, then: as §1
(§4) Within the panel of human cancer cells, there were three sets of related sensitive and resistant cell lines, the latter based wholly or in part on Pgp-mediated efflux. These resistant lines were either created through stable transfection of MCF-7 cells with Pgp (MCF-7-Pgp), or by selection through exposure of OVCA429 and OVCA433 cells to taxol (OVCA429T and OVCA433T)^19 or taxotere (OVCA429TxT and OVCA433TxT), creating a complex MDR phenotype including Pgp upregulation.
as §2, §3

In another assay the test system is OVCA 429T. The assay is described as follows: cells. Particulars: Homo sapiens, read-out: IC50 concentration. The method, then:
as §1, §4, §2, §3

For the next assay, the system named is OVCA 433TxT. Nature of the assay: cells. The conditions noted are these: Homo sapiens, read-out: IC50 concentration. As to the method:
as §1, §4, §2, §3

Another assay relates to OVCA 433T. Nature of the assay: cells. Particulars: Homo sapiens, read-out: IC50 concentration. As to the method: as §1, §4, §2, §3
Another assay deals with MCF-7-pgp. Nature of the assay: Cell cytotoxicity assay (IC50), MCF-7-pgp. The conditions noted are these: Homo sapiens, read-out: IC50 concentration. The method, then: as §1, §4, §2, §3
The test system of assay [1] is UCI-101 tumor cells expressing luciferase. Nature of the assay: Mouse tumor model, UCI-101 intraperitoneal xenograft. The format is in vivo, mice. The conditions noted are these: 10 mg/kg dose.
Text: (a) 1×10^7 UCI-101 tumor cells expressing luciferase were implanted into the peritoneal cavity of athymic nu/nu mice 7 days prior to treatment. […] For the purpose of these experiments TFA^− counteranions on both conjugates were exchanged to C. Subsequent tumor burden was followed by bioluminescence imaging (n=8/group). […] Tumor burden was followed by bioluminescence imaging. […] (n=8/group).
Mouse Tumor Models: Tumor xenografts were created by intraperitoneal injection of female athymic CD1 nu/nu or SCID mice with 1×10^7 cells. Versions of UCI-101, OVCA429 or OVCA429T cells were used expressing Firefly luciferase. […] Mice were then treated with three intraperitoneal injections (5 days apart) of 5 or 10 mg/kg taxol or equimolar dose equivalents of the taxol derivatives, or PBS as a control. For the purpose of these experiments TFA^− counteranions on both conjugates were exchanged to C. Subsequent tumor burden was followed by BLI. Once tumor burden reached 1×10^8 photons/sec/mouse the mice were euthanized.
Comparisons of survival (Kaplan-Meier) curves were made by the Wilcoxon-Rank test. Statistical significance was determined as p<0.05.

For the molecule `CC(=O)O[C@H]1C(=O)[C@@]2(C)[C@H]([C@H](OC(=O)c3ccccc3)[C@]3(O)C[C@H](OC(=O)[C@H](O)[C@@H](NC(=O)c4ccccc4)c4ccccc4)C(C)=C1C3(C)C)[C@]1(OC(C)=O)CO[C@@H]1C[C@@H]2O` [compound 1, Taxol, reference compound], the IC50 with MCF-7 came to 171 nM; in the assay with OVCA 429, 147 nM; with OVCA 433, 294 nM; in the assay on SKOV-3 it was 29 nM; with UCI-101 luc, 246 nM; in the assay with UCI-107 luc it was 320 nM. Also, the IC50 in the assay with OVCA 429TxT stood at 2520 nM; in the assay with OVCA 429T, 15800 nM; in the assay on OVCA 433TxT it was 12400 nM; in the assay on OVCA 433T, 6180 nM; with MCF-7-pgp, 867 nM. In assay [1], this molecule had a complete responses of 12.5%.
